Measurements published in ChEMBL document CHEMBL4706697, “Structure-based designing and synthesis of 2-phenylchromone derivatives as potent tyrosinase inhibitors: In vitro and in silico studies” (Bioorg Med Chem, 2021).

Legend:
Mushroom tyrosinase [1] = target: T1, Mushroom tyrosinase (Agaricus bisporus, UniProt O42713+Q00024+C7FF04+C7FF05); experiment: Inhibition of mushroom tyrosinase using L-Dopa as substrate […]
Mushroom tyrosinase [2] = target: T1, Mushroom tyrosinase; experiment: Inhibition of mushroom tyrosinase using L-Dopa as substrate preincubated for 10 mins followed by substrate addition and measured after 20 mins
Mushroom tyrosinase [3] = target: T1, Mushroom tyrosinase; experiment: Inhibition of mushroom tyrosinase

Structure (SMILES)	IC50 (Mushroom tyrosinase [2])	other results
O=C(Nc1cccc(Cl)c1)Nc1ccc2c(c1)S(=O)(=O)NC2=O		IC50 (Mushroom tyrosinase [1]): 5.85 µM
O=c1c(O)c(-c2ccc(O)cc2)oc2ccccc12	0.23 µM	
COc1ccc(/C=C2\NC(=S)NC2=O)c(OC)c1		IC50 (Mushroom tyrosinase [1]): 1.07 µM
COc1ccc(-c2oc3cc(Br)cc(Br)c3c(=O)c2O)cc1OC	0.093 µg/mL	
CN(C)c1ccc(-c2cc(=O)c3c(Br)cc(Br)cc3o2)cc1	0.57 µg/mL	
O=c1c(O)c(-c2ccc(Cl)cc2)oc2cc(Br)cc(Br)c12	0.71 µg/mL	
O=C(O)c1ccc(-c2cc(=O)c3c(Br)cc(Br)cc3o2)cc1	9.7 µg/mL	
O=c1cc(-c2cccc3ccccc23)oc2cc(Br)cc(Br)c12	3.41 µg/mL	
Cc1ccc(S(=O)(=O)n2cc(-c3oc4cc(Br)cc(Br)c4c(=O)c3O)c3ccccc32)cc1	8.175 µg/mL	
O=C(O)c1ccc(-c2oc3cc(Br)cc(Br)c3c(=O)c2O)cc1	4.26 µg/mL	
O=c1cc(-c2ccco2)oc2cc(Br)cc(Br)c12	2.07 µg/mL	
O=c1c(O)c(-c2ccco2)oc2cc(Br)cc(Br)c12	2.5 µg/mL	
Cc1ccc(-c2cc(=O)c3c(Br)cc(Br)cc3o2)c(C)c1	11.33 µg/mL	
O=c1c(O)c(-c2cccc3ccccc23)oc2cc(Br)cc(Br)c12	0.564 µg/mL	
O=C(O)S[C@H]1N=N[C@@H](NC(=S)Nc2cccc(C(F)(F)F)c2)S1		IC50 (Mushroom tyrosinase [1]): 6.13 µM
O=c1cc(-c2ccc(F)cc2)oc2cc(Br)cc(Br)c12	20.5 µg/mL	
COc1ccc(-c2cc(=O)c3c(Br)cc(Br)cc3o2)cc1OC	0.49 µg/mL	

Structure (SMILES)	IC50 (Mushroom tyrosinase [2])	other results
O=c1cc(-c2c[nH]c3ccccc23)oc2cc(Br)cc(Br)c12	0.22 µg/mL	
O=c1c(O)c(-c2cccs2)oc2cc(Br)cc(Br)c12	3.01 µg/mL	
Cc1ccc(S(=O)(=O)n2cc(-c3cc(=O)c4c(Br)cc(Br)cc4o3)c3ccccc32)cc1	22.22 µg/mL	
C=CCc1ccc(OC(=O)COC(=O)/C=C/c2ccc(O)cc2)c(OC)c1		IC50 (Mushroom tyrosinase [3]): 3 µM
CCN1CCN(CC(=O)Nc2ccc3oc(-c4ccc(C(C)(C)C)cc4)nc3c2)CC1		IC50 (Mushroom tyrosinase [1]): 8.14 µM
O=c1cc(-c2ccc(Cl)cc2)oc2cc(Br)cc(Br)c12	4.2 µg/mL	
CN(C)c1ccc(-c2oc3cc(Br)cc(Br)c3c(=O)c2O)cc1	0.5 µg/mL	
Cc1ccc(-c2cc(=O)c3c(Br)cc(Br)cc3o2)cc1	7.2 µg/mL	
O=c1c(O)c(-c2ccc(F)cc2)oc2cc(Br)cc(Br)c12	2.36 µg/mL	
Cc1ccc(-c2oc3cc(Br)cc(Br)c3c(=O)c2O)c(C)c1	7.57 µg/mL	
O=c1cc(-c2cccs2)oc2cc(Br)cc(Br)c12	0.68 µg/mL	
O=c1cc(-c2ccc([N+](=O)[O-])cc2)oc2cc(Br)cc(Br)c12	0.27 µg/mL	
O=c1cc(-c2cccc([N+](=O)[O-])c2)oc2cc(Br)cc(Br)c12	3.28 µg/mL	
O=c1c(O)c(-c2ccc([N+](=O)[O-])cc2)oc2cc(Br)cc(Br)c12	0.27 µg/mL	
Cc1ccc(-c2oc3cc(Br)cc(Br)c3c(=O)c2O)cc1	0.126 µg/mL	
O=c1c(O)c(-c2c[nH]c3ccccc23)oc2cc(Br)cc(Br)c12	23.58 µg/mL	
O=c1c(O)c(-c2cccc([N+](=O)[O-])c2)oc2cc(Br)cc(Br)c12	0.15 µg/mL	
